Measurements from ChEMBL document CHEMBL3580628, “Introduction of polar groups on the naphthalene scaffold of molecular tongs inhibiting wild-type and mutated HIV-1 protease dimerization” (Medchemcomm, 2014).

Columns and labels:
[1] = molecular target: T1, Protease (Human immunodeficiency virus 1, UniProt Q9YQ12); experiment: Dimerziation inhibition of HIV1 wild type protease using fluorogenic substrate DABCYL- -abu-SQNYPIVQ-EDANS at pH 4.7 by fluorimetric assay
[2] = Dimerziation inhibition of HIV1 ANAM11 protease mutant using fluorogenic substrate DABCYL- -abu-SQNYPIVQ-EDANS at pH 4.7 by fluorimetric assay; design: species or system Human immunodeficiency virus 1
[3] = Retention time of the compound; assay type: physicochemical
[4] = Metabolic stability in Roswell park memorial institute medium containing 20% fetal calf serum assessed as degradation after 48 hrs by HPLC analysis; assay type: ADME; settings: cattle
[5] = molecular target: Protease (Human immunodeficiency virus 1) (UniProt Q9YQ12); experiment: Competitive inhibition of HIV1 protease using fluorogenic substrate DABCYL- -abu-SQNYPIVQ-EDANS assessed as dissociation for dimer-inhibitor complex at 28 uM at pH 4.7 by fluorimetric assay
[6] = molecular target: T1, Protease; experiment: Competitive inhibition of HIV1 protease using fluorogenic substrate DABCYL- -abu-SQNYPIVQ-EDANS assessed as dissociation for dimer-inhibitor complex at pH 4.7 by fluorimetric assay

| Compound | Ki [1] | Ki [2] | Retention_time [3] | Stability [4] | inhibition [5] | Ki [6] |
| --- | --- | --- | --- | --- | --- | --- |
| COc1ccc(NC(C)=O)cc1C(=O)NNC(=O)[C@H](CCCCNC(=O)CCCOc1ccc2cc(N)c(OCCCC(=O)NCCCC[C@H](NC(=O)OC(C)(C)C)C(=O)NNC(=O)c3cc(NC(C)=O)ccc3OC)cc2c1)NC(=O)OC(C)(C)C | 550 nM | 830 nM | 12.2 min | Stable | – | – |
| COc1ccc(NC(C)=O)cc1C(=O)NNC(=O)[C@H](CCCCNC(=O)CCCOc1ccc2cc(CCCN)c(OCCCC(=O)NCCCC[C@H](NC(=O)OC(C)(C)C)C(=O)NNC(=O)c3cc(NC(C)=O)ccc3OC)cc2c1)NC(=O)OC(C)(C)C | – | – | 11.4 min | – | 35% | – |
| COc1ccc(NC(C)=O)cc1C(=O)NNC(=O)[C@H](CCCCNC(=O)CCCOc1ccc2cc(NC(=O)CN3CCN(C(=O)OCc4ccccc4)CC3)c(OCCCC(=O)NCCCC[C@H](NC(=O)OC(C)(C)C)C(=O)NNC(=O)c3cc(NC(C)=O)ccc3OC)cc2c1)NC(=O)OC(C)(C)C | – | – | 13.8 min | – | 0% | – |
| COc1ccc(NC(C)=O)cc1C(=O)NNC(=O)[C@@H](NC(=O)CCCOc1ccc2cc(N)c(OCCCC(=O)N[C@H](C(=O)NNC(=O)c3cc(NC(C)=O)ccc3OC)C(C)C)cc2c1)C(C)C | 400 nM | 940 nM | 10.6 min | – | – | – |
| COc1ccc(NC(C)=O)cc1C(=O)NNC(=O)[C@H](CCCCNC(=O)CCCOc1ccc2cc(CN)c(OCCCC(=O)NCCCC[C@H](NC(=O)OC(C)(C)C)C(=O)NNC(=O)c3cc(NC(C)=O)ccc3OC)cc2c1)NC(=O)OC(C)(C)C | 300 nM | 2450 nM | 11.1 min | – | – | – |
| CNCC(=O)Nc1cc2ccc(OCCCC(=O)NCCCC[C@H](NC(=O)OC(C)(C)C)C(=O)NNC(=O)c3cc(NC(C)=O)ccc3OC)cc2cc1OCCCC(=O)NCCCC[C@H](NC(=O)OC(C)(C)C)C(=O)NNC(=O)c1cc(NC(C)=O)ccc1OC | – | – | 11.1 min | – | 18% | – |
| COc1ccc(NC(C)=O)cc1C(=O)NNC(=O)[C@@H](NC(=O)CCCOc1ccc2cc(NCC(O)CO)c(OCCCC(=O)N[C@H](C(=O)NNC(=O)c3cc(NC(C)=O)ccc3OC)C(C)C)cc2c1)C(C)C (some centres not stated) | 600 nM | 940 nM | 11.3 min | Stable | – | – |
| COc1ccc(NC(C)=O)cc1C(=O)NNC(=O)[C@@H](NC(=O)CCCOc1ccc2ccc(OCCCC(=O)N[C@H](C(=O)NNC(=O)c3cc(NC(C)=O)ccc3OC)C(C)C)cc2c1)C(C)C | 220 nM | – | 13.8 min | – | – | – |
| COc1ccc(NC(C)=O)cc1C(=O)NNC(=O)[C@H](CCCCNC(=O)CCCOc1ccc2cc(CNC(=N)N)c(OCCCC(=O)NCCCC[C@H](NC(=O)OC(C)(C)C)C(=O)NNC(=O)c3cc(NC(C)=O)ccc3OC)cc2c1)NC(=O)OC(C)(C)C | – | – | 11.2 min | – | – | 15000 nM |
| COc1ccc(NC(C)=O)cc1C(=O)NNC(=O)[C@H](CCCCNC(=O)CCCOc1ccc2cc(NCC(O)CO)c(OCCCC(=O)NCCCC[C@H](NC(=O)OC(C)(C)C)C(=O)NNC(=O)c3cc(NC(C)=O)ccc3OC)cc2c1)NC(=O)OC(C)(C)C (some centres not stated) | 2750 nM | – | 12.7 min | – | – | – |
| COc1ccc(NC(C)=O)cc1C(=O)NNC(=O)[C@@H](NC(=O)CCCOc1ccc2cc(NCC3COC(C)(C)O3)c(OCCCC(=O)N[C@H](C(=O)NNC(=O)c3cc(NC(C)=O)ccc3OC)C(C)C)cc2c1)C(C)C (some centres not stated) | 2700 nM | – | 14.2 min | – | – | – |
| COc1ccc(NC(C)=O)cc1C(=O)NNC(=O)[C@H](CCCCNC(=O)CCCOc1ccc2ccc(OCCCC(=O)NCCCC[C@H](NC(=O)OC(C)(C)C)C(=O)NNC(=O)c3cc(NC(C)=O)ccc3OC)cc2c1)NC(=O)OC(C)(C)C | 280 nM | 2000 nM | 14.8 min | – | – | – |
| COc1ccc(NC(C)=O)cc1C(=O)NNC(=O)[C@H](CCCCNC(=O)CCCOc1ccc2cc(NC(=O)CN3CCNCC3)c(OCCCC(=O)NCCCC[C@H](NC(=O)OC(C)(C)C)C(=O)NNC(=O)c3cc(NC(C)=O)ccc3OC)cc2c1)NC(=O)OC(C)(C)C | – | – | 11.2 min | – | 18% | – |
| COc1ccc(NC(C)=O)cc1C(=O)NNC(=O)[C@H](CCCCNC(=O)CCCOc1ccc2cc(NCC3COC(C)(C)O3)c(OCCCC(=O)NCCCC[C@H](NC(=O)OC(C)(C)C)C(=O)NNC(=O)c3cc(NC(C)=O)ccc3OC)cc2c1)NC(=O)OC(C)(C)C (some centres not stated) | 5900 nM | – | 15.2 min | – | – | – |
| COc1ccc(NC(C)=O)cc1C(=O)NNC(=O)[C@H](CCCCNC(=O)CCCOc1ccc2cc(CCCN(C)C)c(OCCCC(=O)NCCCC[C@H](NC(=O)OC(C)(C)C)C(=O)NNC(=O)c3cc(NC(C)=O)ccc3OC)cc2c1)NC(=O)OC(C)(C)C | – | – | 11.4 min | – | 0% | – |
